# From patent US11185616B2, “Implantable medical products, a process for the preparation thereof, and use thereof” (priority 2016, dated 2021)
# Columns and labels:
# [1] = system: thromboxane A2 in platelets; conditions: Köfeler et al. 2000; cited from earlier work
# [2] = system: S. aureus ATCC; experiment: rifampicin resistance development, passaging experiment; assay type: cell-based; conditions: parallel culture with rifampicin-MHC doping
# Procedure: (§1) 10 ml tubes with Müller-Hinton broth (MHB) was brought to a concentration of about 10^6 CPU with 0.01 ml of an overnight culture with S. epidermidis RP62A and S. aureus ATCC, and provided with the respective MHC of rifampicin and miconazole. An aliquot was taken from the overnight cultures, brought into new MHB tubes (about 10^6 CPU), and again incubated over night. This was repeated up to 50 times, and the resistant isolates were frozen.
# [3] = system: S. epidermidis RP62A; experiment: as above; assay type: cell-based; conditions: parallel culture with rifampicin-MHC doping
# Procedure: as §1
SMILES,inhibition of synthesis of thromboxane A2 in platelets [1],resistance frequencies [2],resistance frequencies [3]
"Clc1ccc(COC(Cn2ccnc2)c2ccc(Cl)cc2Cl)c(Cl)c1 (stereo not shown) [Miconazole, miconazole]",selectively inhibit,–,–
Clc1ccccc1C(c1ccccc1)(c1ccccc1)n1ccnc1 [clotrimazole],selectively inhibit,–,–
CO[C@H]1/C=C/O[C@@]2(C)Oc3c(C)c(O)c4c(O)c(c(/C=N/N5CCN(C)CC5)c(O)c4c3C2=O)NC(=O)/C(C)=C\C=C\[C@H](C)[C@H](O)[C@@H](C)[C@@H](O)[C@@H](C)[C@H](OC(C)=O)[C@@H]1C [rifampicin],–,10^−6,10^−6
